In patent publication US20230322743A1, “NOVEL […] DERIVATIVES HAVING PRODRUG PROPERTIES” (Compass Pathfinder Limited, priority 2020, published 2023):
In brackets after ≈: the same amount, converted by molar mass.

Assays:
Micro shake flask LogD = settings: for Mean LogD: Octanol:PBS 1:9 at pH 7.4, 10 μM, six replicates
Method: 6 replicates of each test compound were incubated at 10 μM in a 1:9 ratio of Octanol:PBS at pH 7.4. Following a two hour incubation at room temperature shaking at 600 rpm, the incubation plate was centrifuged for 15 minutes to separate the layers and then two aliquots were removed from the PBS layer. The first was left neat and the second was diluted 10-fold to give dilute samples. Internal standards were added to both the calibration curve and the PBS incubation samples for analysis on LC MS/MS. […] 5,6-MDAI-tryptophanamide and 3,4-MDA-tryptophanamide were prepared as hemioxalate salts.
LogD was measured as the concentration in the PBS layer against the generated calibration curve relative to the starting concentration of 10 μM. All 6 replicates of the neat samples were averaged to give one value for each, with the same calculation performed for the dilute sample values.
6 replicates of each test compound were incubated at 10 μM in a 1:9 ratio of Octanol:PBS at pH 7.4. Following a two hour incubation at room temperature shaking at 600 rpm, the incubation plate was centrifuged for 15 minutes to separate the layers and then two aliquots were removed from the PBS layer. The first was left neat and the second was diluted 10-fold to give dilute samples.

[1] = tested on: behavioural measures of serotonin syndrome; test: Behavioural observations for measures of serotonin syndrome in rats; settings: rat, PO, 5 mg/kg; scored post-treatment up to 2 hours
[2] = Kinetic turbidimetric solubility assay; settings: for Solubility: Example 12, 0.01 M phosphate buffered saline pH 7.4, 2% DMSO, room temperature, maximum concentration tested 200 μM, test compounds as hemioxalate salts; for solubility at 5 min: phosphate buffered saline, pH 7.4, aqueous buffer, kinetic from dmso stock
[3] = tested on: monoamine neurotransmitter release; test: Microdialysis of nucleus accumbens with HPLC analysis of dopamine, noradrenaline and serotonin; type: in vivo, Male Sprague Dawley rats; settings: rat, PO, 5 mg/kg
rats = settings: previously shown, Baumann et al. 2008; cited from earlier work
locomotor activity = test: Locomotor activity in rats following oral dosing (EthoVision tracking); type: in vivo, Male Sprague Dawley rats; settings: rat, 5 mg/kg
[4] = Example 13, glycinamides as hemioxalate salts
[5] = Example 12, test compounds as hemioxalate salts

Row | SMILES | Mean LogD (Micro shake flask LogD; [4]) | Observations (approximate timecourse), behaviours significantly increased vs vehicle [1] | Solubility [2] [µM] | Mean LogD (Micro shake flask LogD; [5]) | Serotonin levels in nucleus accumbens, compared to the vehicle group ([3]; 2 hour period following dosing) | Magnitude of effect on serotonin levels compared to MDMA ([3]; nucleus accumbens) | solubility at 5 min [2] [µM] | also measured
1 | CC(Cc1ccc2c(c1)OCO2)NC(=O)CN (centres unmarked) [3,4-MDA-glycinamide] | 1.08 | – | – | – | – | – | – | LogD compared with that of MDMA (Micro shake flask LogD; Example 13, Octanol:PBS at pH 7.4): slightly greater than that of MDMA
2 | N[C@@H](Cc1c[nH]c2ccccc12)C(=O)NC1Cc2cc3c(cc2C1)OCO3 [5,6-MDAI-tryptophanamide] | – | None | >200 | 2.31 | significant increases | smaller in magnitude compared to MDMA | – | –
3 | CC(Cc1ccc2c(c1)OCO2)NC(=O)[C@@H](N)Cc1c[nH]c2ccccc12 (some centres unmarked) [3,4-MDA-tryptophanamide] | – | None | >200 | 1.97 | significant increases | smaller in magnitude compared to MDMA | – | Dopamine levels in nucleus accumbens, compared to the vehicle group ([3]; 2 hour period following dosing): significant increases; Noradrenaline levels in nucleus accumbens, compared to the vehicle group ([3]; 2 hour period following dosing): significant increases; Magnitude of effects on dopamine and noradrenaline levels compared to MDMA ([3]; nucleus accumbens): smaller in magnitude compared to MDMA
4 | CC(Cc1ccc2c(c1)OCO2)N(C)C(=O)CN (centres unmarked) [3,4-MDMA-glycinamide] | 0.66 | – | – | – | – | – | – | –
5 | COC(=O)C1=C(C)NC(C)=C(C(=O)OCCN(C)Cc2ccccc2)C1c1cccc([N+](=O)[O-])c1 (centres unmarked) [Nicardipine, reference compound] | – | – | – | – | – | – | 22.1 (≈ 10.6 µg/mL) | –
6 | CNC(C)Cc1ccc2c(c1)OCO2 (centres unmarked) [MDMA, 3,4-Methylenedioxy-N-methylamphetamine] | – | Flattened posture (~0-40 mins) and hind limb | – | – | – | – | ≥ 200 | Behavioural measures of serotonin syndrome (rats): induce; Locomotion (rats): hyperlocomotion; Monoamine neurotransmitter levels (rats): elevations; logD at 2 h (Micro shake flask LogD; pH 7.4): 0.57; Effect on locomotor activity (significant change in total distance travelled vs vehicle) (locomotor activity; 0-60 mins): ↑↑↑ (↑↑↑, p < 0.001); Effect on locomotor activity (significant change in total distance travelled vs vehicle) (locomotor activity; 0-120 mins): ↑↑↑ (↑↑↑, p < 0.001); Effect on locomotor activity (significant change in total distance travelled vs vehicle) (locomotor activity; 60-120 mins): ↑↑↑ (↑↑↑, p < 0.001)
